Measured values taken from patent US20260265238A1, “COMPOUNDS AND PHARMACEUTICAL COMPOSITIONS THAT DEGRADE SWI/SNF-RELATED MATRIX-ASSOCIATED ACTIN-DEPENDENT REGULATOR OF CHROMATIN SUBFAMILY A” (Plexium, Inc., priority 2023, published 2026).

What was measured:
[1] = target: T1, SMARCA4-HiBiT HeLa cells (protein which is expressed from the SMARCA4 gene) (Homo sapiens, UniProt P51532); test: SMARCA4 degradation assay (HiBiT-fusion HeLa cell line, 24 h, luminescence); format: cell-based
T1 construct: protein which is expressed from the SMARCA2 and SMARCA4 genes; host or cells: HeLa (SMARCA4-HiBiT engineered line)
Procedure, shortened: (§1)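 HiBiT-fusion HeLa lines, 8,000 cells/well, overnight attachment; cpd 10-pt series (typically 10 μM–300 pM), 24 h, 37° C. Lysis with LgBiT + HiBiT substrate, 10 min shaking at RT, luminescence read. DC50 from dose-response fit; % degradation also scored at 1 μM.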

[2] = target: T2, SMARCA2-HiBiT HeLa cells (protein which is expressed from the SMARCA2 gene) (Homo sapiens, UniProt P51531); test: SMARCA2 degradation assay (HiBiT-fusion HeLa cell line, 24 h, luminescence); format: cell-based
T2 construct: protein which is expressed from the SMARCA2 and SMARCA4 genes; host or cells: HeLa (SMARCA2-HiBiT engineered line)
Procedure, shortened: as §1

T1 sequence (P51532 whole entry, the tested form may be a part): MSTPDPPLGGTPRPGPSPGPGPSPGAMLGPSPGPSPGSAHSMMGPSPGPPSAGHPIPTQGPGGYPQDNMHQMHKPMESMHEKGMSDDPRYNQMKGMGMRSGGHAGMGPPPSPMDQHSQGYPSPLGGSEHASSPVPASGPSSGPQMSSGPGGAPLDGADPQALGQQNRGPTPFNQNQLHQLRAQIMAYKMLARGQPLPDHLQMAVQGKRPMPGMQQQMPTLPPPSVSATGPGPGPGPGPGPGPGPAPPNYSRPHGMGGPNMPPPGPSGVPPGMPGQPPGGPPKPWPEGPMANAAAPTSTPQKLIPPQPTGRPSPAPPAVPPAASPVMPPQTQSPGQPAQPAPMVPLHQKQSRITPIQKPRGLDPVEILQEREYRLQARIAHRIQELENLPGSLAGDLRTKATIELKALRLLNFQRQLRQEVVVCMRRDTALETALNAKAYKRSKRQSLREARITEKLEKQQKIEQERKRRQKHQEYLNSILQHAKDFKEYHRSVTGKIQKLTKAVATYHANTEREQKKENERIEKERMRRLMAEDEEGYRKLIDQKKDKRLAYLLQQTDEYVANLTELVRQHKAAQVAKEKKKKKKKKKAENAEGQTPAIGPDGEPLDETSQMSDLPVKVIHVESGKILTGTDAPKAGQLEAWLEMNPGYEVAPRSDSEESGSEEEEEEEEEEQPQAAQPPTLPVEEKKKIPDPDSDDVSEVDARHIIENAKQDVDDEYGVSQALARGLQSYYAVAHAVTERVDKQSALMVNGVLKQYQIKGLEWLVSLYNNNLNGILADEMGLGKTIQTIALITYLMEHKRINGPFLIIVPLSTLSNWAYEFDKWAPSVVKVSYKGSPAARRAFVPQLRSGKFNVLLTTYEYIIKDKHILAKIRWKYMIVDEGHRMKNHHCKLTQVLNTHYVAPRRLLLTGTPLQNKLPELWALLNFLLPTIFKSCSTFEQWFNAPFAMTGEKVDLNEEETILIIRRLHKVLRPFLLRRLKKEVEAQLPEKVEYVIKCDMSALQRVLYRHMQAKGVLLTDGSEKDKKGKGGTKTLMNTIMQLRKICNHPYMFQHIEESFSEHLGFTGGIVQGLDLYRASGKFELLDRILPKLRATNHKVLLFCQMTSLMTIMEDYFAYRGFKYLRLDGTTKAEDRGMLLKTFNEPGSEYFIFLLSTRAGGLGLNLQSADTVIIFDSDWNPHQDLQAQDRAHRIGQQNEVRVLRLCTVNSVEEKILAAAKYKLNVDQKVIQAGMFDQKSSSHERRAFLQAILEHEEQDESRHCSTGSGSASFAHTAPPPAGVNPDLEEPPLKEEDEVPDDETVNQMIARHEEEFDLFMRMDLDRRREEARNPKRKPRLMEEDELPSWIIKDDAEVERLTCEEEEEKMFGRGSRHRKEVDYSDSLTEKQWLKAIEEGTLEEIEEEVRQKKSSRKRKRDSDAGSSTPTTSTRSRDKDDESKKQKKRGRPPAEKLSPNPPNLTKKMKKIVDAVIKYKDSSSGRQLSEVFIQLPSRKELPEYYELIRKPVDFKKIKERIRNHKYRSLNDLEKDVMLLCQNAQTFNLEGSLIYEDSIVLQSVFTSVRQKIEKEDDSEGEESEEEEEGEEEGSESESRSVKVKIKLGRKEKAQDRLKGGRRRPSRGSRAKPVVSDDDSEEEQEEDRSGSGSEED
T2 sequence (P51531 whole entry, the tested form may be a part): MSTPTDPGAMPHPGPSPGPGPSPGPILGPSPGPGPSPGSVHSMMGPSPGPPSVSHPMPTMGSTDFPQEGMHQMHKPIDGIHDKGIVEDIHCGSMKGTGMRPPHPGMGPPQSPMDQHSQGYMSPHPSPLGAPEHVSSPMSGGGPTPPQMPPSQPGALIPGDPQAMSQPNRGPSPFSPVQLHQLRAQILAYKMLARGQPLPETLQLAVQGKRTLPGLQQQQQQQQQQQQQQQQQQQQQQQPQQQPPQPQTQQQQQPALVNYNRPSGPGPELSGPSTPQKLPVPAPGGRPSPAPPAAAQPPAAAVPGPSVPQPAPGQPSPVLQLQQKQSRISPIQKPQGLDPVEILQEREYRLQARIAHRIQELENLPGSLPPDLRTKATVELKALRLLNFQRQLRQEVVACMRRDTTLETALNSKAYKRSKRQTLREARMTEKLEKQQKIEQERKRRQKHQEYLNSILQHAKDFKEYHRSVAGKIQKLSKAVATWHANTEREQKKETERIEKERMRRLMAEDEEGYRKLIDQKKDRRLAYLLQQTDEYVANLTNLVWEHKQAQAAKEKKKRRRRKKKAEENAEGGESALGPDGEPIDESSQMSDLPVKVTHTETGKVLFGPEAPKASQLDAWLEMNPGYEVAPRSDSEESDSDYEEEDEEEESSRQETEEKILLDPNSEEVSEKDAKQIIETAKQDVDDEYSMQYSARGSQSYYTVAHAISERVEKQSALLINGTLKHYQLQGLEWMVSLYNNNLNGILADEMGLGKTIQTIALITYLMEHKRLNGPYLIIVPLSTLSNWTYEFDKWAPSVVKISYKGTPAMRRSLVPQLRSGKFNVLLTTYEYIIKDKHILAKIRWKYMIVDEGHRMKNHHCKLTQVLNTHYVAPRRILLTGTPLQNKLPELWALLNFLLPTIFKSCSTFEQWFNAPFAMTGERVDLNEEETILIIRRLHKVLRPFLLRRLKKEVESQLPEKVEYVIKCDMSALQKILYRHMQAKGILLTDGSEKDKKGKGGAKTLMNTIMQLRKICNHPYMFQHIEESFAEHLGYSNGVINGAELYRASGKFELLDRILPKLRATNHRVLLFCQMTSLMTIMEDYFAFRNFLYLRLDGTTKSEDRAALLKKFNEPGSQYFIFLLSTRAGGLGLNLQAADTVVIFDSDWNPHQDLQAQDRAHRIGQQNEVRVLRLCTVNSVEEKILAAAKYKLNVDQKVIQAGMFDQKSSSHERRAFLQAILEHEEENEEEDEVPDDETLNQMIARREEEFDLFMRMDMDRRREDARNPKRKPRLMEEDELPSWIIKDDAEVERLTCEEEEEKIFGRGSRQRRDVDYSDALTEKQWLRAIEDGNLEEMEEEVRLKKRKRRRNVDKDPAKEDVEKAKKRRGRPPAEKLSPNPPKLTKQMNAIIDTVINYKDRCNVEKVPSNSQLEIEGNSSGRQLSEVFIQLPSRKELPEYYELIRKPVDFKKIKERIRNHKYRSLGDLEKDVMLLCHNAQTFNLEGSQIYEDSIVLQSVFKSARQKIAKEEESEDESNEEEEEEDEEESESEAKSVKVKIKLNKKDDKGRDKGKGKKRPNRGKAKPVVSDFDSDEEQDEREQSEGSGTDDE

Row | SMILES | DC50 [1] [µM] | inhibition at 1 µM ([1]; @ 1 μM) [%] | DC50 [2] [µM] | SMARCA2 % Degradation @ 1 μM ([2]; @ 1 μM) | SMARCA2 % Degradation @ 1 μM ([2]; 1 μM) | inhibition at 1 µM ([1]; 1 μM) [%]
1 | CC1CCN(c2cc(-c3ccccc3O)nnc2N)CCN1c1ccnc(C#CCNC(=O)c2cc3ncccn3n2)n1 (stereo not drawn) [Compound P-46, N-(3-(4-(4-(3-amino-6-(2-hydroxyphenyl)pyridazin-4-yl)-7-methyl-1,4-diazepan-1-yl)pyrimidin-2-yl)prop-2-yn-1-yl)pyrazolo[1,5-a]pyrimidine-2-carboxamide] | 0.05 to 0.5 | > 70 | 0.05 to 0.5 | +++ (+++=>70%) |  | 
2 | Nc1nnc(-c2ccccc2O)cc1N1CCC2(CCN(c3ccnc(C#CCNC(=O)c4cc5ncccn5n4)n3)C2)CC1 [Compound P-32, N-(3-(4-(8-(3-amino-6-(2-hydroxyphenyl)pyridazin-4-yl)-2,8-diazaspiro[4.5]decan-2-yl)pyrimidin-2-yl)prop-2-yn-1-yl)pyrazolo[1,5-a]pyrimidine-2-carboxamide] | 0.05 to 0.5 | 30 to 70 | 0.05 to 0.5 | ++ (++=30-70%) |  | 
3 | Nc1nnc(-c2ccccc2O)cc1N1CCCN(c2ccnc(C#CCn3cnc4ccccc43)n2)CC1 [Compound P-150, 2-(5-(4-(2-(3-(1H-benzo[d]imidazol-1-yl)prop-1-yn-1-yl)pyrimidin-4-yl)-1,4-diazepan-1-yl)-6-aminopyridazin-3-yl)phenol] | 0.05 to 0.5 | 30 to 70 | 0.05 to 0.5 |  |  | 
4 | CNCC#Cc1nccc(N2C3CCC2CN(c2cc(-c4ccccc4O)nnc2N)C3)n1 [Compound P-291, 0-[6-amino-5-(8-{2-[3-(methylamino)-1-propynyl]-4-pyrimidinyl}-3,8-diazabicyclo[3.2.1]oct-3-yl)-3-pyridazinyl]phenol] | 0.05 to 0.5 | < 30 | 0.05 to 0.5 | ++ (++=30-70%) |  | 
5 | Nc1nnc(-c2ccccc2O)cc1N1C2CCC1CN(c1ccnc(C#CCn3ccnc3)n1)C2 [Compound P-284, 0-[6-amino-5-(3-{2-[3-(1-imidazolyl)-1-propynyl]-4-pyrimidinyl}-3,8-diazabicyclo[3.2.1]oct-8-yl)-3-pyridazinyl]phenol] | 0.5 to 5 | < 30 | 0.05 to 0.5 | ++ (++=30-70%) |  | 
6 | NCC#Cc1nccc(N2C3CC2CN(c2cc(-c4ccccc4O)nnc2N)C3)n1 [Compound P-91, 2-(6-amino-5-(6-(2-(3-aminoprop-1-yn-1-yl)pyrimidin-4-yl)-3,6-diazabicyclo[3.1.1]heptan-3-yl)pyridazin-3-yl)phenol] | 0.5 to 5 | < 30 | 0.5 to 5 | + (+=<30%) |  | 
7 | CC(C)(C)OC(=O)NCC#Cc1nccc(N2CCCN(c3cc(-c4ccccc4O)nnc3N)CC2)n1 [Compound P-121, tert-butyl (3-(4-(4-(3-amino-6-(2-hydroxyphenyl)pyridazin-4-yl)-1,4-diazepan-1-yl)pyrimidin-2-yl)prop-2-yn-1-yl)carbamate] | 0.05 to 0.5 | > 70 | 0.05 to 0.5 | +++ (+++=>70%) |  | 
8 | C[C@@H]1CCN(c2cc(-c3ccccc3O)nnc2N)CCN1c1ccnc(/C=C/C2CC2)n1 [Compound P-171, o-(5-{(R)-4-[2-(2-cyclopropylethenyl)-4-pyrimidinyl]-5-methyl-1,4-diazepan-1-yl}-6-amino-3-pyridazinyl)phenol] | 0.5 to 5 | < 30 | 0.05 to 0.5 | ++ (++=30-70%) |  | 
9 | CN(C)CC#Cc1nccc(N2CCCN(c3cc(-c4ccccc4O)nnc3N)CC2)n1 [Compound P-152, 2-(6-amino-5-(4-(2-(3-(dimethylamino)prop-1-yn-1-yl)pyrimidin-4-yl)-1,4-diazepan-1-yl)pyridazin-3-yl)phenol] | 0.05 to 0.5 | 30 to 70 | 0.05 to 0.5 | +++ (+++=>70%) |  | 
10 | CC1CCN(c2cc(-c3ccccc3O)nnc2N)CCN1c1ccnc(C#CCN)n1 (stereo not drawn) [Compound P-85, 2-(6-amino-5-(4-(2-(3-aminoprop-1-yn-1-yl)pyrimidin-4-yl)-5-methyl-1,4-diazepan-1-yl)pyridazin-3-yl)phenol] | 0.5 to 5 | < 30 | 0.5 to 5 | + (+=<30%) |  | 
11 | C[C@@H]1CCN(c2cc(-c3ccccc3O)nnc2N)CCN1c1ccnc(C#CCN(C)CC(F)F)n1 [Compound P-155, o-{5-[(R)-4-(2-{3-[(2,2-difluoroethyl)-N-methylamino]-1-propynyl}-4-pyrimidinyl)-5-methyl-1,4-diazepan-1-yl]-6-amino-3-pyridazinyl}phenol] | 0.05 to 0.5 | 30 to 70 | 0.05 to 0.5 | ++ (++=30-70%) |  | 

Further lines, results first:

Row | DC50 [1] [µM] | inhibition at 1 µM ([1]; @ 1 μM) [%] | DC50 [2] [µM] | SMARCA2 % Degradation @ 1 μM ([2]; @ 1 μM) | SMARCA2 % Degradation @ 1 μM ([2]; 1 μM) | inhibition at 1 µM ([1]; 1 μM) [%] | SMILES
12 | 0.05 to 0.5 | > 70 | 0.05 to 0.5 | +++ (+++=>70%) |  |  | CN1CCCC1C#Cc1nccc(N2CCCN(c3cc(-c4ccccc4O)nnc3N)CC2)n1 (stereo not drawn) [Compound P-350, 0-[6-amino-5-(4-{2-[2-(1-methyl-2-pyrrolidinyl)cthynyl]-4-pyrimidinyl}-1,4-diazepan-1-yl)-3-pyridazinyl]phenol]
13 | 0.05 to 0.5 | 30 to 70 | 0.05 to 0.5 | +++ (+++=>70%) |  |  | C[C@@H]1CCN(c2cc(-c3ccccc3O)nnc2N)CCN1c1ccnc(C#CCOCC2CC(N(C)C)C2)n1 (stereo partly drawn) [Compound P-251, o-{5-[(R)-4-[2-(3-{[3-(dimethylamino)cyclobutyl]methoxy}-1-propynyl)-4-pyrimidinyl]-5-methyl-1,4-diazepan-1-yl]-6-amino-3-pyridazinyl}phenol]
14 | 0.05 to 0.5 | 30 to 70 | 0.05 to 0.5 | +++ (+++=>70%) |  |  | C[C@@H]1CCN(c2cc(-c3ccccc3O)nnc2N)CCN1c1ccnc(C#CCN2CC3CCC2CO3)n1 (stereo partly drawn) [Compound P-178, o-{5-[(R)-5-methyl-4-(2-{3-(2-oxa-5-azabicyclo[2.2.2]oct-5-yl)-1-propynyl}-4-pyrimidinyl)-1,4-diazepan-1-yl]-6-amino-3-pyridazinyl}phenol]
15 | > 5 |  | 0.5 to 5 |  |  |  | CC(C)(C)OC(=O)NCC#Cc1cccc(N2CCCN(c3cc(-c4ccccc4O)nnc3N)CC2)n1 [Compound P-432, 3-(6-{4-[3-amino-6-(o-hydroxyphenyl)-4-pyridaziny1]-1,4-diazepan-1-yl}-2-pyridyl)-2-propynyl 2-methyl-2-propanecarbamate]
16 | < 0.05 | 30 to 70 | < 0.05 | ++ (++=30-70%) |  |  | C[C@@H]1CCN(c2cc(-c3ccccc3O)nnc2N)CCN1c1ccnc(C#CCN2CCC[C@@H]2C)n1 [Compound P-233, o-{5-[(R)-4-(2-{3-[(S)-2-methyl-1-pyrrolidinyl]-1-propynyl}-4-pyrimidinyl)-5-methyl-1,4-diazepan-1-yl]-6-amino-3-pyridazinyl} phenol]
17 | 0.5 to 5 | 30 to 70 | 0.5 to 5 | ++ (++=30-70%) |  |  | Nc1nnc(-c2ccccc2O)cc1N1CCCN(c2ccnc(C#CCN3CCN(C(=O)C4CC4)CC3)n2)CC1 [Compound P-365, {4-[3-(4-{4-[3-amino-6-(o-hydroxyphenyl)-4-pyridaziny1]-1,4-diazepan-1-yl}-2-pyrimidinyl)-2-propynyl]-1-piperazinyl}cyclopropylmethanone]
18 | < 0.05 | 30 to 70 | < 0.05 | ++ (++=30-70%) |  |  | C[C@@H]1CCN(c2cc(-c3ccccc3O)nnc2N)CCN1c1ccnc(C#CCN(C)C)n1 [Compound P-345, 0-{5-[(R)-4-{2-[3-(dimethylamino)-1-propynyl]-4-pyrimidinyl}-5-methyl-1,4-diazepan-1-y1]-6-amino-3-pyridazinyl}phenol]
19 | > 5 |  | 0.05 to 0.5 |  | ++ (++=30-70%) |  | C[C@@H]1CCN(c2cc(-c3ccccc3O)nnc2N)CCN1c1ccc(C#N)c(C#CCN2CC(F)(F)[C@H]2C)n1 [Compound P-413, 6-{(R)-4-[3-amino-6-(o-hydroxyphenyl)-4-pyridazinyl]-7-methyl-1,4-diazepan-1-y1}-2-{3-[(R)-3,3-difluoro-2-methyl-1-azetidinyl]-1-propynyl} nicotinonitrile]
20 | < 0.05 | 30 to 70 | < 0.05 | ++ (++=30-70%) |  |  | C[C@@H]1CCN(c2cc(-c3ccccc3O)nnc2N)CCN1c1nc(C#CCN2CC3CC2C3)ncc1F [Compound P-189, o-{5-[(R)-4-(2-{3-(2-azabicyclo[2.1.1]hex-2-yl)-1-propynyl}-5-fluoro-4-pyrimidinyl)-5-methyl-1,4-diazepan-1-yl]-6-amino-3-pyridazinyl}phenol]
21 | 0.5 to 5 | 30 to 70 | 0.05 to 0.5 | ++ (++=30-70%) |  |  | Nc1nnc(-c2ccccc2O)cc1N1CCCN(c2ccnc(C#CCNC3CC3)n2)CC1 [Compound P-301, 0-[6-amino-5-(4-{2-[3-(cyclopropylamino)-1-propynyl]-4-pyrimidinyl}-1,4-diazepan-1-yl)-3-pyridazinyl]phenol]
22 | 0.05 to 0.5 |  | 0.05 to 0.5 |  | ++ (++=30-70%) | < 30 | CN(C)CC#Cc1cc(OC2CCN(c3cc(-c4ccccc4O)nnc3N)CC2)ccn1 [Compound P-384, 0-[6-amino-5-(4-{2-[3-(dimethylamino)-1-propynyl]-4-pyridyloxy}-1-piperidyl)-3-pyridazinyl]phenol]
